We go through 2 compounds from US7091351B2, “Vanadium compounds for treating cancer” (Parker Hughes Institute, priority 1998, dated 2006).

pIC50: −log10 of the molar value.

What all share (assay type): cell-based, human
The subject of series [1] is Tera-2 testicular cancer cells. The series is described as follows: Flow cytometric TUNEL apoptosis assay, TERA-2 cells. The note with it: 24 h, TUNEL-positive nuclei.
The subject of series [2] is Ntera-2 testicular cancer cells. The experiment in a line: Flow cytometric TUNEL apoptosis assay, NTERA-2 cells. The settings on record: 24 h, TUNEL-positive nuclei. An outline of the steps: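 Cells at 10^6/ml treated 24 h with 100 μM vanadocene in 0.1% DMSO. Ntera-2: two-color flow TUNEL, FITC-dUTP labeling of DNA breaks with PI counterstain, apoptotic fraction gated.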
(A flow cytometer gives signals particle by particle.)

Series [3] deals with 833-K testicular cancer cells. The experiment in a line: Cytotoxic activity of oxovanadium(IV) compounds, 833-K. The settings on record: read-out: Cytotoxic Activity 833-K. An outline of the steps: (§1)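 Formazan absorbance after a 4-hour MTT pulse gave viability following 48-hour compound exposure (0.1–250 μM) of cells seeded at 4×10^4 per well. Triplicate wells per treatment; IC50 from regression.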

The test system of series [4] is Tera-2 testicular cancer cells. The experiment in a line: Cytotoxic activity of oxovanadium(IV) compounds, TERA-2. The settings on record: read-out: Cytotoxic Activity TERA-2. An outline of the steps: as §1
In series [5] the test system is BT20 breast cancer cells. The experiment in a line: Cytotoxic activity of oxovanadium(IV) compounds, BT20. The settings on record: read-out: Cytotoxic Activity BT20. The method, boiled down:
as §1

Series [6] has as its system PC3 prostate cancer cells. The series is described as follows: Cytotoxic activity of oxovanadium(IV) compounds, PC3. The note with it: read-out: Cytotoxic Activity PC3. The method, boiled down:
as §1

For `[Cl-].[Cl-].[V+4].c1cc[cH-]c1.c1cc[cH-]c1` [VDC, VCp2Cl2], in series [1], the “% Apoptosis at 100 μM TERA-2” value is given as 88 (87, 89) %. Moreover, in series [2], the “% Apoptosis at 100 μM NTERA-2” value is listed as 35 (34, 34) %.
Take “bis(4,7-dimethyl-1,10-phenanthroline)sulfatooxovanadium(IV) [Compound 29]”: the pIC50 is 6.07 in series [3], 4.71 in series [4], 5.82 in series [5] and 5.77 in series [6].
